Results: ChEMBL document CHEMBL1145021, “First X-ray cocrystal structure of a bacterial FabH condensing enzyme and a small molecule inhibitor achieved using rational design and homology modeling” (J Med Chem, 2003)

Tests used:
[1] = Inhibitory activity against Escherichia coli Beta-ketoacyl-ACP synthase III (FabH) (initiator of the fatty acid synthesis)
[2] = Inhibitory activity against Streptococcus pneumoniae Beta-ketoacyl-ACP synthase III (FabH) (initiator of the fatty acid synthesis)
[3] = Inhibitory activity against Escherichia coli Beta-ketoacyl-ACP synthase III (initiator of the fatty acid synthesis)
[4] = Inhibitory activity against Streptococcus pneumoniae Beta-ketoacyl-ACP synthase III (initiator of the fatty acid synthesis)
[5] = Inhibitory activity against Escherichia coli FabH (initiator of the fatty acid synthesis)
[6] = Inhibitory activity against Streptococcus pneumoniae FabH (initiator of the fatty acid synthesis)

| IC50 [1] | IC50 [2] | further results | SMILES |
| --- | --- | --- | --- |
| 1700 nM | 62 nM |  | O=C(O)CCCn1c(C(=O)O)cc2cc(OCc3c(Cl)cccc3Cl)ccc21 |
|  |  | IC50 [3]: 2500 nM; IC50 [4]: 200 nM | O=C(O)c1ccc(Cn2c(C(=O)O)cc3cc(OCc4c(Cl)cccc4Cl)ccc32)cc1 |
|  |  | IC50 [5]: 830 nM; IC50 [6]: 40 nM | O=C(O)c1cc2cc(OCc3c(Cl)cccc3Cl)ccc2n1Cc1cc2c(cc1Cl)OCO2 |
| 78000 nM | 1200 nM |  | O=C(O)Cn1c(C(=O)O)cc2cc(OCc3c(Cl)cccc3Cl)ccc21 |
|  |  | IC50 [5]: 2000 nM; IC50 [6]: 53 nM | O=C(O)c1cc2cc(OCc3c(Cl)cccc3Cl)ccc2n1Cc1ccc(O)cc1 |
| 2000 nM | 170 nM |  | O=C(O)CCCCCCn1c(C(=O)O)cc2cc(OCc3c(Cl)cccc3Cl)ccc21 |
| 4600 nM | 46 nM |  | O=C(CCCCCn1c(C(=O)O)cc2cc(OCc3c(Cl)cccc3Cl)ccc21)NS(=O)(=O)c1ccccc1 |
|  | 140 nM |  | O=C(O)CCCCCn1c(C(=O)O)cc2cc(OCc3c(Cl)cccc3Cl)ccc21 |
